Measurements published in ChEMBL document CHEMBL1145110, “Oxidosqualene cyclase inhibitors as antimicrobial agents” (J Med Chem, 2003).

Tests used:
Leishmania mexicana [1] = experiment: Tested for inhibition of growth Leishmania mexicana in a pathogen cell culture assay; assay type: functional; conditions: read-out: ED50 (the source's name)
Pneumocystis carinii [2] = experiment: Tested for inhibition of growth Pneumocystis carinii in a pathogen cell culture assay, at a concentration of 10 uM; assay type: functional
Trypanosoma cruzi [3] = experiment: Tested for inhibition of growth Trypanosoma cruzi in a pathogen cell culture assay; assay type: functional; conditions: read-out: ED50 (the source's name)
Lanosterol synthase = biological target: T1, Lanosterol synthase (Rattus norvegicus, UniProt P48450); experiment: Tested for Oxidosqualene-lanosterol cyclase inhibition in rat
T1 sequence (P48450 whole entry): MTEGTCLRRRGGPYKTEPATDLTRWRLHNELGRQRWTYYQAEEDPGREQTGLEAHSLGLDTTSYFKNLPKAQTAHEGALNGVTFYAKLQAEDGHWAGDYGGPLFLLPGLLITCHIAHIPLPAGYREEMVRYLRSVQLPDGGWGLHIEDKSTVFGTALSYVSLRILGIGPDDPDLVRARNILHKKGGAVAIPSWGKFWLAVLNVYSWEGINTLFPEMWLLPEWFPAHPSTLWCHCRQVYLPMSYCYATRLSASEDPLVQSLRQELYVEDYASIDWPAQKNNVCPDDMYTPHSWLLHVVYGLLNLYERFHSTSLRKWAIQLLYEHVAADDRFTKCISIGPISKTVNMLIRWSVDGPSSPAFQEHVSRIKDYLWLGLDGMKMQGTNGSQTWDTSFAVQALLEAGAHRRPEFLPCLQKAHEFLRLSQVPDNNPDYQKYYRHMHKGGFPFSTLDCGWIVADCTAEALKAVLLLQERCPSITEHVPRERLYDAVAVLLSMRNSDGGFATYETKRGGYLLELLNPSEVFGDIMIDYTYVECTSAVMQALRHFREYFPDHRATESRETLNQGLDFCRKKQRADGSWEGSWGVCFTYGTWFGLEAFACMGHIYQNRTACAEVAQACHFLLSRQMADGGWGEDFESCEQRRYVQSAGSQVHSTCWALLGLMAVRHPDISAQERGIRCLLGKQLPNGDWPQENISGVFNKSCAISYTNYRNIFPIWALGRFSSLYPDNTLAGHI

NIH3T3 = experiment: Tested for inhibition of growth of NIH3T3 cells a in a pathogen cell culture assay; assay type: functional; conditions: Mus musculus, read-out: ED50 (the source's name)
Trypanosoma brucei [4] = experiment: Tested for inhibition of growth Trypanosoma brucei in a pathogen cell culture assay; assay type: functional; conditions: read-out: ED50 (the source's name)
Toxoplasma gondii [5] = experiment: Tested for inhibition of growth Toxoplasma gondii in a pathogen cell culture assay, at a concentration of 10 uM; assay type: functional
Trypanosoma cruzi [6] = experiment: Tested for inhibition of growth of Trypanosoma cruzi in a pathogen cell culture assay; assay type: functional; conditions: read-out: ED50 (the source's name)
Pneumocystis carinii [7] = experiment: Tested for inhibition of growth of Pneumocystis carinii in a pathogen cell culture assay, at a concentration of 10 uM; assay type: functional
Leishmania mexicana [8] = experiment: Tested for inhibition of growth of Leishmania mexicana in a pathogen cell culture assay; assay type: functional; conditions: read-out: ED50 (the source's name)
Trypanosoma brucei [9] = experiment: Tested for inhibition of growth of Trypanosoma brucei in a pathogen cell culture assay; assay type: functional; conditions: read-out: ED50 (the source's name)
Toxoplasma gondii [10] = experiment: Tested for inhibition of growth of Toxoplasma gondii in a pathogen cell culture assay, at a concentration of 10 uM; assay type: functional

| Compound | EC50 (Trypanosoma cruzi [3]) | IC50 (Lanosterol synthase) | EC50 (Trypanosoma brucei [4]) | EC50 (Leishmania mexicana [1]) | inhibition at 10 µM (Pneumocystis carinii [2]) | EC50 (NIH3T3) | inhibition at 10 µM (Toxoplasma gondii [5]) | EC50 (Trypanosoma cruzi [6]) | inhibition at 10 µM (Pneumocystis carinii [7]) | EC50 (Leishmania mexicana [8]) | EC50 (Trypanosoma brucei [9]) | inhibition at 10 µM (Toxoplasma gondii [10]) |
| --- | --- | --- | --- | --- | --- | --- | --- | --- | --- | --- | --- | --- |
| CCN(CC)CCOc1ccc(-c2ccccc2)cc1 | > 10000 nM | – | > 10 µM | 10000 nM | 95% | > 10 µM | < 1% | – | – | – | – | – |
| C=CCN(C)CCCCCCOc1ccc(C(=O)c2ccc(Cl)cc2)c(F)c1 | – | 49 nM | – | – | – | – | – | – | – | – | – | – |
| O=C(c1ccc(Cl)cc1)c1ccc(OC2CN3CCC2CC3)cc1 (centres undefined) | – | 160 nM | – | – | – | > 10 µM | – | 1000 nM | 81% | 400 nM | > 10 µM | 48% |

More lines, in order of falling EC50 (Trypanosoma cruzi [3]), values ahead:

| EC50 (Trypanosoma cruzi [3]) | IC50 (Lanosterol synthase) | EC50 (Trypanosoma brucei [4]) | Compound | EC50 (Leishmania mexicana [1]) | inhibition at 10 µM (Pneumocystis carinii [2]) | EC50 (NIH3T3) | inhibition at 10 µM (Toxoplasma gondii [5]) | EC50 (Trypanosoma cruzi [6]) | inhibition at 10 µM (Pneumocystis carinii [7]) | EC50 (Leishmania mexicana [8]) | EC50 (Trypanosoma brucei [9]) | inhibition at 10 µM (Toxoplasma gondii [10]) |
| --- | --- | --- | --- | --- | --- | --- | --- | --- | --- | --- | --- | --- |
| 1000 nM | 2500 nM | > 10 µM | CN(C)CCCOc1ccc(-c2ccccc2)cc1 | 400 nM | 95% | > 10 µM | 17% | – | – | – | – | – |
| 1000 nM | – | > 10 µM | OCCN1CCN(CCOc2ccc(-c3ccccc3)cc2)CC1 | 400 nM | 95% | > 10 µM | 28% | – | – | – | – | – |
| 1000 nM | – | > 10 µM | O=C(c1ccc(Cl)cc1)c1ccc(OCCN2CCN(CCO)CC2)cc1 | 400 nM | 95% | > 10 µM | 28% | – | – | – | – | – |
| 1000 nM | – | > 10 µM | CN(C)CCCOc1ccc(C(=O)c2ccc(Cl)cc2)cc1 | 400 nM | 95% | > 10 µM | 17% | – | – | – | – | – |
